Measurements as given in US11905537B2, “Bifunction chemical epigenetic modifiers and methods of use” (The University of North Carolina at Chapel Hill, priority 2017, dated 2024).
Several values for one entry are separate records, joined by “and”; a condition that tells them apart may be missing. Identical values can stand only once.

Columns and labels:
Assay type in all cases: cell-based, human
[1] = tested on: BFP reporter gene downstream of a tre3g promoter; assay: BFP reporter activation in HEK 293T cells with dCas9 systems, flow cytometry
From the text: To test for changes in gene expression, human embryonic kidney (HEK) 293T cells were transfected with a BFP reporter gene downstream of a tre3g promoter and performed flow cytometry on at least 100,000 cells after co-expressing the gRNA and dCas9 machinery(Ma, D. et al. Nat. Commun. 7, 13056 (2016)). As a benchmark control for gene activation, a dCas9-p300 fusion protein known to increase expression was used (Hilton, I. B. et al., Nat. Biotechnol. 33, 510-517 (2015)). Using a gRNA that targets the tre3g promoter at six interspaced sites, the dCas9-p300 increased BFP expression 14-fold compared to the non-targeting (NT) control gRNA (FIG. 21A, p<0.05). Next, activating the reporter gene with a plasmid expressing dCas9 (N-terminus)-FKBPx2 (C-terminus) was tested using three predicted activating bifunctional CEMs.
Cell culture: Low passage (p30-40) HEK 293T cells were cultured with high-glucose DMEM (Corning, 10-013-CV) supplemented with 10% FBS serum (Atlantic Biologicals, S11550), 10 mM HEPES (Corning, 25-060-Cl), NEAA (Gibco, 11140-050), Pen/Strep, and 55 μM 2-Mercaptoethanol. Cells were passaged every 2-5 days and maintained at 10-90% confluency in an incubator at 37° C. and 5% CO2.
Cell Transfection: For FIG. 21, HEK 293T cells were split into 12-well plates with 100,000 cells per well. The next day, PEI (polyethlenimine, Polysciences #23966-1) transfection was done with 1 μg of DNA, 3 μL of PEI, and 100 μL of Optimem (Gibco, 31985070). For FIGS. 21A, 21B, 22, and 23 we transfected with 0.1 μg BFP reporter; 0.7 μg dCas9-X; 0.2 μg gRNA. For FIG. 19C, FIG. 19D, FIG. 24, and FIG. 24 we transfected with 0.1 μg BFP reporter; 0.5 μg dCas9-X; 0.2 μg scFv-FKBP or ms2-FKBP; 0.2 μg gRNA. Media was change 16 hours after transfection with fresh media, with or without bifunctional CEMa addition. After 48 hours of bifunctional CEMa exposure, cells were isolated for flow cytometry analysis. For FIG. 23, HEK 293T cells were split into 6-well plates with 200,000 cells per well. The next day, PIE transfection was done with 3 μg of DNA, 9 μL of PEI, and 200 μL of Optimem. For FIGS. 23A-C and 26, 3 μg of gRNA was added in equal ratio (if applicable). Media was change 16 hours after transfection with fresh media, with or without bifunctional CEMa addition. After 48 hours of bifunctional CEMa exposure, cells were isolate for RNA extraction.
Flow cytometry: Flow cytometry was performed with the Attune Nxt as previously described (Chiarella, A. M. et al. Biochemistry 57, 2756-2761 (2018)). The data presented represents three separate transfections and significance was determined with the student's t-test.

MYOD1 = assay: Endogenous MYOD1 activation in HEK 293T cells, qRT-PCR; settings: 200 nM, 48 hours
From the text: (§1) Next, the plasmid-optimized dCas9-CEMa system was adapted to target endogenous mammalian genes. Because an endogenous gene was being targeted rather than hundreds of transiently expressing reporter plasmids, the dCas9 machinery (dCas9-p300, dCas9-FKBPx2 and/or MCP-FKBP) was chosen to transfect HEK 293T cells. After the cells were stably selected for integration of the dCas9- and MCP-expressing plasmids, the gRNAs that were designed to target endogenous genes were transfected. To determine the time point at which to observe more efficient dCas9 regulation by this method, cells expressing dCas9-p300 were transfected with gRNAs for myogenic differentiation (MYOD1), the RNA was extracted and qRT-PCR was performed after 24, 48 and 72 hours post transfection. […]
(§2) RNA extraction: For FIGS. 23 and 26, cells from the 6-well plates were isolated. […] RNA extraction was performed with an RNeasy Plus Mini Kit (Qiagen, 74134) and the relative enrichment of mRNA was quantified with the RNA-to-CTr 1-step kit (Thermo Fisher Scientific, 4389986). […]

CXCR4 = assay: Endogenous CXCR4 activation in HEK 293T cells, qRT-PCR; settings: 48 hours
From the text: as §1, §2

ASCL1 = assay: Endogenous ASCL1 activation in HEK 293T cells, qRT-PCR; settings: 48 hours
From the text: as §1, §2

HEK 293T cells = assay: Cell health by cell density and morphology in the dose curve; settings: concentrations of 500 nM and above, data not shown
Description: The dCas9 “SunTag” system was adapted to be compatible with the bifunctional CEMa technology(Tanenbaum, M. E. et al. Cell 159, 635-646 (2014); (Chavez, A. et al. Nat. Methods 13, 563-567 (2016)). Using the improved dCas9-CEMa system (dCas9-FKBPx2, ms2-FKBP, tre3g ×6 gRNA, BFP reporter), the effects of a global epigenetic inhibitor in combination with a gene-specific approach was tested. After the cells were transfected, they were treated with 200 nM of CEM87 and 2.5 μM of Entinostat. BFP expression increased 34-fold compared to unreated cells as measured by flow cytometry. More specifically, A dCas9-SunTagx10 plasmid was used that expresses an array of 10 yeast-specific GCN4 (gene control protein 4) peptides from the C-terminus of the dCas9, and co-transfected with a single chain variable fragment (scFv), (made to be GCN4-specific) fused to FKBP. Theoretically, as many as 10 FKBP molecules per dCas9 would be recruited to the gene of interest, increasing the bifunctional CEMa recruitment power. With the adapted SunTag method and the tre3g ×6 gRNA, 48 hours of 200 nM CEM87 exposure increased expression 16-fold compared to untreated cells (FIG. 24, p<0.001). […] With the improved dCas9 system and the most efficient bifunctional CEMa, CEM87, a dose-curve was performed and the ideal concentration for maximum expression was determined to be 200 nM (FIG. 21D). […]

[2] = dCas9-FKBPx2 (FIG. 21B legend: dCas9-FKBPx1), 200 nM, 48 hours, vs untreated cells
[3] = dCas9-SunTagx10 with scFv-FKBP, tre3g ×6 gRNA, 200 nM, 48 hours, vs untreated

| cell health (cell density and morphology) (HEK 293T cells) | Structure (SMILES) | increase in BFP expression in combination with HDACi ([1]; 200 nM CEM87 plus 2.5 μM entinostat, dCas9-FKBPx2, ms2-FKBP, vs untreated cells) | increase in BFP expression [1, 2] | increase in BFP expression ([1]; dCas9-FKBPx2, 6×-tre3g gRNA, 200 nM, 48 hours, vs untreated) | increase in BFP expression ([1]; dCas9-FKBPx2, ms2-FKBP, tre3g ×6 gRNA, 200 nM, vs untreated cells) | activation of BFP expression ([1]; dCas9-FKBPx2, multiplex gRNA, 200 nM, 48 hours, vs untreated) | increase in BFP expression ([1]; dCas9-FKBPx2, single site gRNA in gene body, 200 nM, 48 hours, vs untreated) | effect on BFP expression with dCas9-HA ([1]; dCas9-HA (no FKBP recruitment site), 6×-tre3g gRNA, 200 nM, 48 hours) | increase in BFP expression [1, 3] | activation of BFP expression ([1]; dose curve, 10 nM, dCas9-FKBPx2, ms2-FKBP) | activation of BFP expression ([1]; dose curve, 50 nM, dCas9-FKBPx2, ms2-FKBP) | ideal concentration for maximum expression ([1]; dose curve, dCas9-FKBPx2, ms2-FKBP) | MYOD1 expression change with NT gRNAs (MYOD1; NT gRNA control cells) | increase in MYOD1 mRNA levels (MYOD1; dCas9-FKBPx2 and ms2-FKBP, MYOD1 gRNAs, vs untreated, normalized to Gapdh) | change in CXCR4 expression with NT gRNA (CXCR4; NT gRNA control cells) | increase in CXCR4 expression (CXCR4; dCas9-FKBPx2 and ms2-FKBP, CXCR4 gRNAs, vs untreated) | increase in ASCL1 in NT samples (ASCL1; NT gRNA samples) | increase in ASCL1 mRNA levels (ASCL1; dCas9-FKBPx2 and ms2-FKBP, ASCL1 gRNAs, vs untreated) | increase in BFP expression ([1]; dCas9-FKBPx2, ms2-FKBP, tre3g ×6 gRNA, equivalent concentration, vs cells expressing NT gRNA) |
| --- | --- | --- | --- | --- | --- | --- | --- | --- | --- | --- | --- | --- | --- | --- | --- | --- | --- | --- | --- |
| appeared less healthy | COc1ccc2c(c1)C(c1ccc(Cl)cc1)=N[C@@H](CC(=O)NCc1cn(CCOCCOCCOCCNC(=O)CCSCCC[C@@H]3/C=C(\C)C[C@H](C)C[C@H](OC)[C@H]4O[C@@](O)(C(=O)C(=O)N5CCCC[C@H]5C(=O)O[C@H](/C(C)=C/[C@@H]5CC[C@@H](O)[C@H](OC)C5)[C@H](C)[C@@H](O)CC3=O)[C@H](C)C[C@@H]4OC)nn1)c1nnc(C)n1-2 [CEM87] | 34 fold | 7.5 fold and ~7 fold | 5 fold | 18 fold | 4 fold | 2 fold | did not significantly affect the BFP expression | 16 fold | 2 fold | 8 fold | 200 nM | no significant changes in expression | 13 fold | less than 2 fold | 10 fold | less than 4 fold | 22 fold | – |
| – | CO[C@H]1C[C@@H](C)C/C(C)=C/[C@@H](CCCSCCC(=O)NCCOCCOCCOCCn2cc(COc3ccc(CCc4nc5cc(-c6c(C)noc6C)ccc5n4CCN4CCOCC4)cc3F)nn2)C(=O)C[C@H](O)[C@@H](C)[C@@H](/C(C)=C/[C@@H]2CC[C@@H](O)[C@H](OC)C2)OC(=O)[C@@H]2CCCCN2C(=O)C(=O)[C@]2(O)O[C@H]1[C@@H](OC)C[C@H]2C [CEM114] | – | 1.6 fold | – | – | – | – | – | 2 fold | – | – | – | – | – | – | – | – | – | 6 fold |
